The values below come from PubChem BioAssay (NCI).

Among the test systems are HCC-2998 colon; CAKI-1 renal; TK-10 renal; COLO 205 colon; KM12 colon; U251 CNS; CCRF-CEM leukemia; MCF7 breast; HS 578T breast; BT-549 breast.
Common to all, as to experiment: inhibition of tumour cell growth, NCI panel, 48 h

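The compound was tested at five concentrations on cells cultured in 96-well plates, with a 48-hour exposure period. The concentration for 50% growth inhibition is given as GI50. TGI: total growth inhibition.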 Bounds are passed on as bounds.

For `O=C(c1ccccc1)N1C2CCC1C(C(F)(F)F)=C2C(F)(F)F`, the TGI in the assay on HCC-2998 colon, in the assay on CAKI-1 renal, with TK-10 renal, in the assay on COLO 205 colon, in the assay on KM12 colon and in the assay with U251 CNS was > 100 µM throughout. In addition, the TGI in the assay on CCRF-CEM leukemia is > 100 µM.

`NS(=O)(=O)c1ccc(NC2=CC(=O)C(=O)c3ccccc32)cc1`: the TGI in the assay with HCC-2998 colon, in the assay with CAKI-1 renal, in the assay on TK-10 renal, in the assay on COLO 205 colon, in the assay on KM12 colon and with U251 CNS was > 100 µM throughout. Also, in the assay on CCRF-CEM leukemia, the TGI is > 100 µM.

In the case of `COc1c(C(=O)c2ccc([N+](=O)[O-])cc2)cc(C(C)(C)C)cc1C(C)(C)C`, the TGI is 66.9 µM with HCC-2998 colon; > 100 µM with CAKI-1 renal; > 100 µM in the assay with TK-10 renal; > 100 µM in the assay on KM12 colon; 50.1 µM with U251 CNS; 97.5 µM in the assay on CCRF-CEM leukemia.

In the case of `CC1CC(=O)Nc2ccccc2N1C(=O)CN1CCC(CCCCN(C)C)CC1` (stereo unspecified), the TGI in the assay with HCC-2998 colon, in the assay on CAKI-1 renal, in the assay with TK-10 renal, in the assay on COLO 205 colon, in the assay on KM12 colon and with U251 CNS was > 100 µM in each case. The TGI in the assay on CCRF-CEM leukemia is > 100 µM.

Consider `COc1cc(OC)c(/C=C\c2ccnc3ccccc23)c(OC)c1`, for which the TGI amounted to 23.9 µM in the assay on HCC-2998 colon; 22.2 µM in the assay with CAKI-1 renal; 17.8 µM with TK-10 renal; 8.2 µM in the assay on COLO 205 colon; 16.5 µM in the assay on KM12 colon; 21.4 µM in the assay with MCF7 breast. Besides, the TGI in the assay with U251 CNS turned out to be 15.2 µM; in the assay on CCRF-CEM leukemia, 5.75 µM; with HS 578T breast, 12.1 µM.

As to `O=C1CCC2CC(C(=O)c3ccccc3)CCC2CN1` (stereo unspecified) (tested in a mixture with another compound), the TGI in the assay on HCC-2998 colon, in the assay with CAKI-1 renal, in the assay on COLO 205 colon, in the assay with KM12 colon, with U251 CNS and with CCRF-CEM leukemia was > 100 µM throughout.

For `CC1C[C@H](C)CC(C(O)CC2CC(=O)N(Cc3ccccc3)C(=O)C2)C1O` (stereo partly specified), the TGI in the assay on HCC-2998 colon, in the assay with CAKI-1 renal, with TK-10 renal, with COLO 205 colon, in the assay on KM12 colon and in the assay with U251 CNS was > 100 µM throughout. In addition, in the assay with CCRF-CEM leukemia, the TGI was > 100 µM.

In the case of `CCCCCCCCOCC(O)COC(=O)CCCCCCC` (stereo unspecified), the TGI with HCC-2998 colon is > 100 µM; with CAKI-1 renal, > 100 µM; with TK-10 renal it was > 100 µM; in the assay with COLO 205 colon, > 100 µM; in the assay on U251 CNS, > 100 µM; in the assay on CCRF-CEM leukemia, 35.7 µM.

As for `CCOC(=O)CSC(=O)NCCCl`, the TGI in the assay on HCC-2998 colon, in the assay with CAKI-1 renal, in the assay on TK-10 renal, with COLO 205 colon, in the assay on KM12 colon and in the assay on U251 CNS was > 100 µM in each case. Also, the TGI in the assay on CCRF-CEM leukemia is > 100 µM. Besides, the GI50 in the assay with CCRF-CEM leukemia is 7.22 µM.

For `COC(=O)/C=C(\C(=O)OC)c1c2c3c(cc(OC)c(OC)c3c3ccccc13)CCN2C`, the TGI in the assay on HCC-2998 colon was > 100 µM; in the assay on TK-10 renal, > 100 µM; with COLO 205 colon it was 31.7 µM; with KM12 colon it was > 100 µM; with U251 CNS it was > 100 µM; in the assay with CCRF-CEM leukemia, 85.4 µM.

Turning to `COc1ccc2c(c1)[nH]c(=O)c1c3cc(OC)ccc3cn21`, the GI50 with HCC-2998 colon was 0.0159 µM; in the assay on BT-549 breast, < 0.031 µM; with CAKI-1 renal it was < 0.01 µM; in the assay on TK-10 renal it was 0.374 µM; in the assay with COLO 205 colon, 0.0274 µM; with KM12 colon, < 0.01 µM. The GI50 with MCF7 breast was 0.0277 µM; in the assay with U251 CNS it was < 0.01 µM; in the assay with CCRF-CEM leukemia it was < 0.0132 µM. The TGI with HCC-2998 colon is 0.0701 µM; in the assay with BT-549 breast, 1.19 µM; in the assay with CAKI-1 renal, < 0.01 µM; in the assay with TK-10 renal it was 1.79 µM; in the assay on COLO 205 colon it was 0.0923 µM; in the assay with KM12 colon it was 0.393 µM. Also, the TGI in the assay with MCF7 breast worked out at 0.597 µM; in the assay with U251 CNS it was 1.23 µM; in the assay on CCRF-CEM leukemia it was 0.0751 µM.

Regarding `COc1ccc(C2CC(c3cc(C)ccc3O)=NC(N)=N2)cc1` (stereo unspecified), the TGI with HCC-2998 colon, in the assay with CAKI-1 renal, in the assay on TK-10 renal, in the assay on COLO 205 colon, in the assay on KM12 colon and in the assay on U251 CNS was > 100 µM throughout. For the same molecule, the TGI in the assay on CCRF-CEM leukemia is > 100 µM.

With `CN(Cc1cc(Br)cc(Br)c1O)Cc1cc(Br)cc(Br)c1O`, the GI50 is 3.5 µM in the assay with HCC-2998 colon; 0.612 µM in the assay with CAKI-1 renal; 4.26 µM in the assay on TK-10 renal; 3.72 µM with COLO 205 colon; 3.81 µM in the assay on KM12 colon; 2.96 µM with MCF7 breast. Also, the GI50 was 0.689 µM with U251 CNS, 1.31 µM in the assay on CCRF-CEM leukemia and 5.24 µM in the assay with HS 578T breast. Besides, the TGI with HCC-2998 colon is 17 µM; in the assay with CAKI-1 renal, 12.5 µM; in the assay on TK-10 renal it was 20.4 µM; with COLO 205 colon, 15.2 µM; in the assay with KM12 colon, 16.4 µM; in the assay on MCF7 breast it was 15 µM. In addition, the values for the TGI with U251 CNS, with CCRF-CEM leukemia and in the assay on HS 578T breast were 13.3 µM, > 100 µM and 47.7 µM, respectively.

For `O=C(c1ccccc1)[C@H]1Nc2ccc(Cl)cc2C2c3ccccc3CC21` (stereo partly specified), the TGI with HCC-2998 colon is 83.4 µM; in the assay with CAKI-1 renal, > 100 µM; in the assay on TK-10 renal, > 100 µM; with COLO 205 colon it was > 100 µM; with KM12 colon it was > 100 µM; with U251 CNS it was > 100 µM.

With `CC(=O)c1ccc(OCC(O)CO)cc1` (stereo unspecified), the TGI in the assay with HCC-2998 colon, with CAKI-1 renal, with TK-10 renal, with COLO 205 colon, with KM12 colon and in the assay with U251 CNS was > 100 µM each time. For the same molecule, the TGI in the assay with CCRF-CEM leukemia was > 100 µM.

As for `OCC(O)C(O)C(O)c1nn(-c2ccc(Cl)cc2)c2nc3cc(Cl)c(Cl)cc3nc12` (stereo unspecified), the TGI in the assay on HCC-2998 colon, in the assay with CAKI-1 renal, in the assay with TK-10 renal, in the assay on COLO 205 colon, with U251 CNS and in the assay with CCRF-CEM leukemia was > 100 µM throughout.
